The subject of this assay is OVCAR-5 complex spheroids, viability. Kind of assay: Anticancer human tumor OVCAR-5 cell line growth inhibition.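 For all read-outs here: spheroids exposed to agents for seven days.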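 For viability, T/C: 100% = DMSO vehicle control wells viability.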 The conditions noted are these: for viability, T/C: stronger effect = lower value. The essentials:
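Multicellular complex spheroids of tumor cells with human endothelial cells (HUVEC) and mesenchymal stem cells; the LSD1 inhibitor iadademstat was combined with standard-of-care or investigational agents. Top concentration at or near clinical Cmax, half-log dilutions; final DMSO ≤0.25%.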

The mark [1] stands for this setting: curve of first compound, second compound 0.1 µM.
Setting [2] is: curve of first compound, second compound 0.316 µM.
Where [3] appears, read: curve of first compound, second compound 1 µM.
Setting [4] is: curve of first compound, second compound 3.16 µM.
Setting [5] is: curve of first compound, second compound 10 µM.
Setting [6] is: second compound 0.1 µM, first compound 0.00949 µM.
The mark [7] stands for this setting: second compound 0.1 µM, first compound 0.03 µM.
Setting [8] is: second compound 0.1 µM, first compound 0.0949 µM.
Setting [9] is: second compound 0.1 µM, first compound 0.3 µM.
[10] abbreviates: second compound 0.1 µM, first compound 0.949 µM.
[11] abbreviates: second compound 0.1 µM, first compound 3 µM.
Setting [12] is: second compound 0.316 µM, first compound 0.00949 µM.
Where [13] appears, read: second compound 0.316 µM, first compound 0.03 µM.
Where [14] appears, read: second compound 0.316 µM, first compound 0.0949 µM.
The mark [15] stands for this setting: second compound 0.316 µM, first compound 0.3 µM.
[16] abbreviates: second compound 0.316 µM, first compound 0.949 µM.
[17] abbreviates: second compound 0.316 µM, first compound 3 µM.
Setting [18] is: second compound 1 µM, first compound 0.00949 µM.
Where [19] appears, read: second compound 1 µM, first compound 0.03 µM.
[20] abbreviates: second compound 1 µM, first compound 0.0949 µM.
Where [21] appears, read: second compound 1 µM, first compound 0.3 µM.
Setting [22] is: second compound 1 µM, first compound 0.949 µM.
Where [23] appears, read: second compound 1 µM, first compound 3 µM.
Setting [24] is: second compound 3.16 µM, first compound 0.00949 µM.
The mark [25] stands for this setting: second compound 3.16 µM, first compound 0.03 µM.
Where [26] appears, read: second compound 3.16 µM, first compound 0.0949 µM.
Where [27] appears, read: second compound 3.16 µM, first compound 0.3 µM.
Where [28] appears, read: second compound 3.16 µM, first compound 0.949 µM.
Setting [29] is: second compound 3.16 µM, first compound 3 µM.
[30] abbreviates: second compound 10 µM, first compound 0.00949 µM.
[31] abbreviates: second compound 10 µM, first compound 0.03 µM.
Where [32] appears, read: second compound 10 µM, first compound 0.0949 µM.
[33] abbreviates: second compound 10 µM, first compound 0.3 µM.
[34] abbreviates: second compound 10 µM, first compound 0.949 µM.
[35] abbreviates: second compound 10 µM, first compound 3 µM.

Several values for one entry are separate records, joined by “and”; a condition that tells them apart may be missing. Equal entries are not always repeated.

Broadly, the IC50 is the point on the concentration scale where inhibition reaches its midpoint. A word on the viability, T/C: it is the result in the treated group divided by that in the control group, in per cent.

Regarding `CC(C)CC(NC(=O)C(Cc1ccccc1)NC(=O)c1cnccn1)B(O)O` (stereo not drawn) + NC1CC1c1ccc(-c2cccc(O)c2)cc1, the IC50 was determined as 7.35 nM under setting [1]; 6.68 nM under setting [2]; 6.31 nM under setting [3]; 4.44 nM under setting [4]; 4.52 nM under setting [5]. Further, the viability, T/C by setting is: (second compound 0.1 µM, first compound 0.000316 µM) 111%; (second compound 0.1 µM, first compound 0.001 µM) 103%; (second compound 0.1 µM, first compound 0.00316 µM) 75.8%; (second compound 0.1 µM, first compound 0.01 µM) 40.9%; (second compound 0.1 µM, first compound 0.0316 µM) 14.8%; (second compound 0.1 µM, first compound 0.1 µM) 5.74%. Besides, the viability, T/C by setting is: (second compound 0.316 µM, first compound 0.000316 µM) 111%; (second compound 0.316 µM, first compound 0.001 µM) 98.8%; (second compound 0.316 µM, first compound 0.00316 µM) 74.6%; (second compound 0.316 µM, first compound 0.01 µM) 37.5%; (second compound 0.316 µM, first compound 0.0316 µM) 10.7%; (second compound 0.316 µM, first compound 0.1 µM) 3.96%. Moreover, the viability, T/C is 100% (second compound 1 µM, first compound 0.000316 µM); 103% (second compound 1 µM, first compound 0.001 µM); 71.6% (second compound 1 µM, first compound 0.00316 µM); 35% (second compound 1 µM, first compound 0.01 µM); 10.2% (second compound 1 µM, first compound 0.0316 µM); 2.99% (second compound 1 µM, first compound 0.1 µM). In addition, the viability, T/C is, setting by setting: (second compound 3.16 µM, first compound 0.000316 µM) 101%; (second compound 3.16 µM, first compound 0.001 µM) 70.5%; (second compound 3.16 µM, first compound 0.00316 µM) 65.7%; (second compound 3.16 µM, first compound 0.01 µM) 32.3%; (second compound 3.16 µM, first compound 0.0316 µM) 12.6%; (second compound 3.16 µM, first compound 0.1 µM) 3.14%. Also, the viability, T/C by setting is: (second compound 10 µM, first compound 0.000316 µM) 81%; (second compound 10 µM, first compound 0.001 µM) 87%; (second compound 10 µM, first compound 0.00316 µM) 57.4%; (second compound 10 µM, first compound 0.01 µM) 27.6%; (second compound 10 µM, first compound 0.0316 µM) 8.96%; (second compound 10 µM, first compound 0.1 µM) 1.75%.
With `CC(C)CC(NC(=O)CNC(=O)c1cc(Cl)ccc1Cl)B1OC(=O)CC(CC(=O)O)(C(=O)O)O1` (stereo not drawn), the viability, T/C runs as follows: (compound 0.000316 µM) 94.7% and 103%; (compound 0.001 µM) 95.6% and 99.8%; (compound 0.00316 µM) 92.1% and 95.9%; (compound 0.01 µM) 80.1% and 77.8%; (compound 0.0316 µM) 85% and 71.1%; (compound 0.1 µM) 70.6% and 57.8%. For the same molecule, the IC50 (curve of compound) was over 100 nM.
With `CC[C@@]1(O)C(=O)OCc2c1cc1n(c2=O)Cc2cc3c(CN(C)C)c(O)ccc3nc2-1`, the viability, T/C is 102% and 99% (compound 0.000316 µM); 93% and 93.4% (compound 0.001 µM); 57% and 47.1% (compound 0.00316 µM); 46.6% and 31.7% (compound 0.01 µM); 47.1% and 34.3% (compound 0.0316 µM); 24% and 18.9% (compound 0.1 µM). For the same molecule, the IC50 (curve of compound) is 8.81 nM and 2.98 nM.
Turning to `Nc1ncn(C2CC(O)C(CO)S2)c(=O)n1` (stereo not drawn), the viability, T/C runs as follows: (compound 0.000949 µM) 107% and 104%; (compound 0.003 µM) 104% and 109%; (compound 0.00949 µM) 104%; (compound 0.03 µM) 97.1% and 94.2%; (compound 0.0949 µM) 82.2% and 85.6%; (compound 0.3 µM) 78.2% and 72.3%. Besides, where the note is “curve of compound”, the IC50 was over 300 nM.
Consider `CC1COCCN1c1cc(-c2ccnn2C)c2ccnc(-c3ccn[nH]3)c2n1` (stereo not drawn), for which the viability, T/C is 105% and 92.5% (compound 0.00316 µM); 86.5% and 81.7% (compound 0.01 µM); 58.9% and 50.4% (compound 0.0316 µM); 39.9% and 36.2% (compound 0.1 µM); 34.4% and 32.6% (compound 0.316 µM); 32.2% and 27% (compound 1 µM). The half-inhibitory concentration (IC50) (curve of compound) is 54.5 nM and 35.5 nM.
On to `Nc1ccccc1NC(=O)c1ccc(CNC(=O)OCc2cccnc2)cc1` + NC1CCC(NC2CC2c2ccccc2)CC1, for which the half-maximal inhibitory concentration (IC50) is, setting by setting: under setting [1], 246 nM; under setting [2], 258 nM; under setting [3], 292 nM; under setting [4], 252 nM; under setting [5], 170 nM. In addition, the viability, T/C is 97.2% under setting [6]; 88.6% under setting [7]; 69% under setting [8]; 46.3% under setting [9]; 23.8% under setting [10]; 9.78% under setting [11]. Besides, the viability, T/C runs as follows: under setting [12], 109%; under setting [13], 90.8%; under setting [14], 74.4%; under setting [15], 45.5%; under setting [16], 25%; under setting [17], 10.4%. Moreover, the viability, T/C was 101% under setting [18]; 97% under setting [19]; 75.6% under setting [20]; 48% under setting [21]; 27.3% under setting [22]; 10.3% under setting [23]. For the same molecule, the viability, T/C reads like this: under setting [24], 98.9%; under setting [25], 78.5%; under setting [26], 69.7%; under setting [27], 47%; under setting [28], 26.5%; under setting [29], 10.8%. Also, the viability, T/C by setting is: under setting [30], 86.2%; under setting [31], 71.6%; under setting [32], 57.2%; under setting [33], 42.4%; under setting [34], 28.6%; under setting [35], 9.2%.
As for `NS(=O)(=O)OCC1CC(n2ccc3c(NC4CCc5ccccc54)ncnc32)CC1O` (stereo not drawn) + NC1CC1c1ccc(-c2cccc(O)c2)cc1, the IC50 came out at 186 nM under setting [1]; 178 nM under setting [2]; 145 nM under setting [3]; 156 nM under setting [4]; 83.9 nM under setting [5]. In addition, the viability, T/C reads like this: under setting [6], 145%; under setting [7], 133%; under setting [8], 84.2%; under setting [9], 25.6%; under setting [10], 8.27%; under setting [11], 5.16%. For the same molecule, the viability, T/C is 152% under setting [12]; 149% under setting [13]; 79.6% under setting [14]; 26.9% under setting [15]; 22.2% under setting [16]; 4.93% under setting [17]. Besides, the viability, T/C runs as follows: under setting [18], 117%; under setting [19], 145%; under setting [20], 72%; under setting [21], 25%; under setting [22], 7.9%; under setting [23], 4.8%. For the same molecule, the viability, T/C under setting [24] is 141%; the viability, T/C under setting [25] is 126%; the viability, T/C under setting [26] is 69.7%; the viability, T/C under setting [27] was 23.8%; the viability, T/C under setting [28] is 7.78%; the viability, T/C under setting [29] is 4.11%. The viability, T/C was 131% under setting [30]; 101% under setting [31]; 42.7% under setting [32]; 16.2% under setting [33]; 6.76% under setting [34]; 4.61% under setting [35].

These data come from PubChem BioAssay AID1918956 (Molecular Pharmacology Branch, DTP, NCI, 2023).
